pIC50: −log10 of the molar value. Counter-ions that a name gives are not always drawn.
Molecular target: T1, B-type monoamine oxidase (Mus musculus, UniProt Q8BW75)
T1 sequence (Q8BW75 1-520): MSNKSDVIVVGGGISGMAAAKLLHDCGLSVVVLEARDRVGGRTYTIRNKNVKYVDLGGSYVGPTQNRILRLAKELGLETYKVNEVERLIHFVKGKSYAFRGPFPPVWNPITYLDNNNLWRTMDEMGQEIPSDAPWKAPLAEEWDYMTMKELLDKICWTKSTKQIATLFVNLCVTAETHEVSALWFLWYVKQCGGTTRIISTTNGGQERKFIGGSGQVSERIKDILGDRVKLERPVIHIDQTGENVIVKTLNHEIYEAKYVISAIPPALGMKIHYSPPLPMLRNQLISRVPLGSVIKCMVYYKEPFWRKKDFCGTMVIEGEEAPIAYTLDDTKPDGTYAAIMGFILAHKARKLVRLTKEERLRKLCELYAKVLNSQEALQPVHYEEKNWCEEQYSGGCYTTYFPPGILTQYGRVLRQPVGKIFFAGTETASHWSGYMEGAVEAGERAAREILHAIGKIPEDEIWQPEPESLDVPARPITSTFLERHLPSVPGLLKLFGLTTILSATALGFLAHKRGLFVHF
Assay: Monoamine oxidase-inhibitory activity, B-type (crude mitochondria of mouse brain, 14C-2-phenylethylamine substrate)
Type: biochemical
Conditions: 14C-PEA 20 μM, pH 7.4, 38° C., 20 min preincubation

SMILES	pIC50
NCCOc1noc2ncccc12 [10(e), 3-(2-Aminoethoxy)pyrido[3,2-d]isoxazole Dihydrochloride]	7.99
NCCOc1noc2ccc(F)cc12 [Example 5, 3-(2-Aminoethoxy)-5-fluoro-1,2-benzisoxazole hydrochloride]	8.87
NCCOc1noc2ccc(Br)cc12 [Example 15, 3-(2-Aminoethoxy)-5-bromo-1,2-benzisoxazole Hydrochloride]	9.49
NCCOc1noc2cc(Cl)ccc12 [Example 11, 3-(2-Aminoethoxy)-6-chloro-1,2-benzisoxazole Hydrochloride]	8.55
NCCOc1noc2ccc([N+](=O)[O-])cc12 [Example 8, 3-(2-Aminoethoxy)-5-nitro-1,2-benzisoxazole Hydrochloride]	9.25
NCCOc1noc2c(Cl)cccc12 [Example 9, 3-(2-Aminoethoxy)-7-chloro-1,2-benzisoxazole Hydrochloride]	7.70
Cc1cccc2c(OCCN)noc12 [Example 13, 3-(2-Aminoethoxy)-7-methyl-1,2-benzisoxazole Hydrochloride]	7.56
NCCOc1noc2ccccc12 [Example 2, 3-(2-Aminoethoxy)-1,2-benzisoxazole hydrochloride]	8.73
NCCOc1noc2c(Cl)cc(Cl)cc12 [Example 12, 3-(2-Aminoethoxy)-5,7-dichloro-1,2-benzisoxazole Hydrochloride]	7.58
Cc1ccc2onc(OCCN)c2c1 [Example 7, 3-(2-Aminoethoxy)-5-methyl-1,2-benzisoxazole Hydrochloride]	9.25
Cc1ccc2c(OCCN)noc2c1 [Example 14, 3-(2-Aminoethoxy)-6-methyl-1,2-benzisoxazole Hydrochloride]	7.67
COc1ccc2onc(OCCN)c2c1 [Example 6, 3-(2-Aminoethoxy)-5-methoxy-1,2-benzisoxazole hydrochloride]	8.25
NCCOc1noc2ncccc12 [10(f), 3-(2-Aminoethoxy)pyrido[3,2-d]isoxazole Hydrochloride]	7.87
NCCOc1noc2ccc(Cl)cc12 [Example 1, 3-(2-Aminoethoxy)-5-chloro-1,2-benzisoxazole hydrochloride]	9.43

Next, values leading:

pIC50	SMILES
8.53	NCCSc1noc2ccc(Cl)cc12 [Example 38, 3-(2-Aminoethylthio)-5-chloro-1,2-benzisoxazole hydrochloride]
7.74	COC(=O)c1ccc2onc(OCCN)c2c1 [Example 42, 3-(2-Aminoethoxy)-5-methoxycarbonyl-1,2-benzisoxazole hydrochloride]
8.33	CSc1c(F)ccc2onc(OCCN)c12 [Example 21, 3-(2-Aminoethoxy)-5-fluoro-4-methylthio-1,2-benzisoxazole Hydrochloride]
8.17	N#Cc1cccc2onc(OCCN)c12 [Example 24, 3-(2-Aminoethoxy)-4-cyano-1,2-benzisoxazole hydrochloride]
8.22	NCCOc1noc2ccc(OC(F)F)cc12 [Example 44, 3-(2-Aminoethoxy)-5-difluoromethoxy-1,2-benzisoxazole hydrochloride]
8.18	Cc1cc(Cl)cc2c(SCCN)noc12 [Example 56, 3-(2-Aminoethylthio)-5-chloro-7-methyl-1,2-benzisoxazole hydrochloride]
8.35	COc1ccc2onc(SCCN)c2c1 [Example 33, 3-(2-Aminoethylthio)-5-methoxy-1,2-benzisoxazole hydrochloride]
8.66	Cc1ccc2onc(SCCN)c2c1 [Example 34, 3-(2-Aminoethylthio)-5-methyl-1,2-benzisoxazole hydrochloride]
8.38	Cc1c(F)ccc2onc(OCCN)c12 [Example 17, 3-(2-Aminoethoxy)-5-fluoro-4-methyl-1,2-benzisoxazole Hydrochloride]
8.57	NCCSc1noc2ccc(F)cc12 [Example 26, 3-(2-Aminoethylthio)-5-fluoro-1,2-benzisoxazole hydrochloride]
8.05	NCCSc1noc2ccc([N+](=O)[O-])cc12 [Example 35, 3-(2-Aminoethylthio)-5-nitro-1,2-benzisoxazole hydrochloride]

Same assay, conditions: 14C-PEA 20 μM, pH 7.4, 38° C., reference compounds A and B

pIC50	SMILES
5.63	CNCCOc1noc2ccccc12 [Compound A, 3(2-N-Methylamino)ethoxy-1,2-benzisoxazole, reference compound]
5.33	CN(C)CCOc1noc2ccccc12 [Compound B, 3(2-N,NDimethylamino)ethoxy-1,2-benzisoxazole]

System: not given
Assay: not given
Conditions: Farmaco, Ed. Sci., 23, 1081 (1968); 24, 440 (1969); cited from earlier work

SMILES	anti-inflammatory effects
CN(C)CCOc1noc2ccccc12 [Compound B, 3(2-N,NDimethylamino)ethoxy-1,2-benzisoxazole]	possesses anti-inflammatory effects

System: not given
Assay: not given
Conditions: Farmaco, Ed. Sci., 23, 1081 (1968); 24, 440 (1969); cited from earlier work
Remark: another data set of the same source

SMILES	local (infiltration) anaesthetic effect
CN(C)CCOc1noc2ccccc12 [Compound B, 3(2-N,NDimethylamino)ethoxy-1,2-benzisoxazole]	local (infiltration) anaesthetic effect
